The subject of assay [1] is SOC (store operated calcium channel). Put plainly: Measurement of SOC IC50 (thapsigargin store depletion, calcium re-addition, CHO cells). The note with it: read-out: SOC IC50. It is filed as cell-based. The method, then: The SOC (store operated calcium channel)-suppressive action can be measured by the method described in the Example and using, for example, FDSS 3000.
CHO cell culture medium was replaced with a BSS solution which is an extracellular fluidfree of calcium, the compound of the present invention was added 1 min later, and 1 μM thapsigargin was allowed to act thereon 2 min later to deplete intracellular calcium store. […]

Another assay has as its system transglutaminase (TGase). Put plainly: Measurement of TG (TGase inhibitory activity, monodansyl cadaverine / N,N-dimethylcasein fluorescence, FDSS 3000). It is filed as biochemical. The essentials: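 Compound (1 μL of 10 mM stock) added to 0.1 mL reaction: 100 mM HEPES-NaOH pH 7.5, 1 mM CaCl2, 20 μM monodansyl cadaverine, 0.05 mg/mL N,N-dimethylcasein, 5 μg/mL TGase. Rate of fluorescence change at 340 nm measured; DMSO control set to 100; TG50 is the concentration halving activity.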

In assay [2] the target is T1, SOCE (ICRAC) reconstituted by STIM1 and Orail (CRACM1) (Homo sapiens, UniProt Q96D31).
T1 construct: expressed in transfected cells; host or cells: HEK293 cells
T1 sequence (Q96D31 whole entry): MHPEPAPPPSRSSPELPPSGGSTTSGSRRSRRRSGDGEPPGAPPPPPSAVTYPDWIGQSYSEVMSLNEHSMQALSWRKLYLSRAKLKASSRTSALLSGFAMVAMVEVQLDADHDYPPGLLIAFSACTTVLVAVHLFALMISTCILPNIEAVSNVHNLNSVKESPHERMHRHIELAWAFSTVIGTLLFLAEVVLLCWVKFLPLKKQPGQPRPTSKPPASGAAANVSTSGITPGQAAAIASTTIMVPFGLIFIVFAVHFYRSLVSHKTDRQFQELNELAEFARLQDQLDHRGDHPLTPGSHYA
In words: ICRAC whole cell patch clamp in HEK293 cells forcibly expressing STIM1 and Orail (CRACM1). The note with it: inward current at −80 mV. The assay is classed as cell-based. The source says: FIG. 2 is a drawing showing an Icrac inhibitory effect of 163AE, and the vertical axis and the horizontal axis show the same as in FIG. 1.
The effects of 162AE (bis(3,3′-(phenylaminoethoxyboryl)benzyl)ether described in Example 8) and 163AE (bis(4,4′-(phenylaminoethoxyboryl)benzyl)ether described in Example 131) for ICRAC, whose molecular entity as one of SOCE has been clarified, were investigated using an electrophysiological method. STIM1 and Orail (CRACM1) were forcibly expressed in HEK293 cells, and whole cell records were taken by the Patch clamp technique. BAPTA (20 mM), which is a calcium chelator, and IP3 (20 μM) that depletes intracellular calcium store were added to a recording electrode internal solution (120 mM Cs-glutamate, 10 mM HEPES, 3 mM MgCl2), 10 mM calcium was added to an extracellular solution to facilitate observation of calcium electric current, and a ramp command from −150 mV to +150 mV was input at 0.5 Hz to obtain a current-voltage curve. For quantification of SOCE, the size of the inward current at −80 mV was used as an index. After the start of the whole cell recording, time was taken to sufficiently activate SOCE (ICRAC), and compounds 162AE and 163AE as inhibitors were administered to the cells. […]

The subject of assay [3] is Truncated N-terminal huntington 150 Q-EGFP-Neuron 2a cells. In words: Measurement of x-Fold (polyglutamine aggregation inhibitory activity). The assay is classed as cell-based. The method, then: In the present invention, the polyglutamine aggregation inhibitory activity (x-Fold) can be measured, for example, by the method described in the Example.
The number of the aggregated cells, and the total number of cells were counted by Array Scan V T1 (manufactured by Cellomics, Pittuburg, USA), and the ratio of the aggregated cells to the total number of cells was determined (x-Fold). […]

Where [4] appears, read: CHO cells, 1 μM thapsigargin, 2 mM calcium chloride.
Where [5] appears, read: TGase activity with compound (10 mM, 1 μL in 0.1 ml enzyme reaction solution), DMSO control taken as 100.
[6] abbreviates: TGase inhibitory activity value, Table 1.
Setting [7] is: polyglutamine aggregation inhibitory activity, Table 1.
[8] abbreviates: ratio of aggregated cells to total number of cells, compound 20 μM, 20 hr, almost 1 without compound, smaller = stronger inhibition.
[9] abbreviates: Cricetulus griseus, CHO, Table 1.
The mark [10] stands for this setting: Cricetulus griseus, CHO, CHO cells, 1 μM thapsigargin, 2 mM calcium chloride.
The mark [11] stands for this setting: TGase inhibitory activity measurement, unit not given.
The mark [12] stands for this setting: polyglutamine aggregation, Truncated N-terminal huntington 150 Q-EGFP-Neuron 2a cells.

pIC50: −log10 of the molar value. Like-named read-outs stand apart in the source and are kept apart here.

As to `NCCOB(c1ccccc1)c1cccc(COCc2cccc(B(OCCN)c3ccccc3)c2)c1` [Example 8, bis(3,3′-(phenylaminoethoxyboryl)benzyl)ether], the figures for the negative-log IC50 (pIC50) in assay [1] (setting [4]) and in assay [2] were 6.70 and 7.07, respectively. Also, the “TGase activity remaining (% of DMSO control = 100)” value in the assay on transglutaminase (TGase) (setting [5]) and in the assay on transglutaminase (TGase) (setting [6]) was 24 in each case. Also, the x-Fold in assay [3] (setting [7]) and in assay [3] (setting [8]) was 1.1 throughout.

Turning to `NC(=O)CC(N)C(=O)OB(c1ccccc1)c1ccc(Oc2ccc(B(O)c3ccccc3)cc2)cc1` (single isomer, unassigned) [Example 6, (4-(phenylasparagineboryl)phenyl)(4′-(phenylhydroxyboryl)phenyl)ether], in assay [1] (setting [9]), the pIC50 is 6.70. In addition, the “TGase activity remaining (% of DMSO control = 100)” value in the assay on transglutaminase (TGase) (setting [5]) is given as 23; in the assay with transglutaminase (TGase) (TGase inhibitory activity value, Table 1, listed as 7132), 23. Also, the x-Fold in assay [3] (polyglutamine aggregation inhibitory activity, Table 1, listed as 7132) stood at 1.01; in assay [3] (setting [8]) it was 1.01.

Turning to `NC(=O)CCC(N)C(=O)OB(c1ccccc1)c1ccc(Oc2ccc(B(OC(=O)C(N)CCC(N)=O)c3ccccc3)cc2)cc1` (stereo not shown) [Example 273, bis(4,4′-(phenyl-glutamineboryl)phenyl)ether], the pIC50 in assay [1] (setting [4]) was 6.60. In addition, the “TGase activity remaining (% of DMSO control = 100)” value is listed as 83 in the assay with transglutaminase (TGase) (setting [5]) and 83 with transglutaminase (TGase) (TGase inhibitory activity value, Table 1, listed as 1024). The x-Fold is reported as 0.56 in assay [3] (polyglutamine aggregation inhibitory activity, Table 1, listed as 1024) and 0.56 in assay [3] (setting [8]).

As to “bis(4,4′-(phenylaminoethoxyboryl)phenyl)ether [Example 5]”, the pIC50 in assay [1] (setting [4]) is 6.82. In addition, the “TGase activity remaining (% of DMSO control = 100)” value in the assay on transglutaminase (TGase) (setting [5]) and in the assay on transglutaminase (TGase) (setting [6]) was −4 each time. In addition, the x-Fold in assay [3] (setting [7]) and in assay [3] (setting [8]) was 0.60 throughout.

Turning to `NC(CS)C(=O)OB(c1ccccc1)c1ccccc1` (stereo not shown) [Example 266, diphenyl(cysteinate-O,N)borane], the pIC50 in assay [1] (setting [10]) and in assay [1] (setting [9]) was 5.52 throughout. Besides, the “TGase activity remaining (% of DMSO control = 100)” value in the assay with transglutaminase (TGase) (setting [5]) and in the assay on transglutaminase (TGase) (setting [6]) was 84 in each case. Also, the x-Fold in assay [3] (setting [7]) and in assay [3] (setting [8]) was 0.87 each time.

Consider `NCC(OB(c1ccccc1)c1cccc(COCc2cccc(B(OC(CN)c3ccccc3)c3ccccc3)c2)c1)c1ccccc1` (stereo not shown) [Example 468, bis(3,3′-(phenyl-2-amino-1-phenylethoxyboryl)benzyl)ether], for which the pIC50 in assay [1] (setting [4]) is 6.52. Also, the “TGase activity remaining (% of DMSO control = 100)” value with transglutaminase (TGase) (setting [5]) and in the assay with transglutaminase (TGase) (setting [11]) was 35 each time. Besides, the x-Fold in assay [3] (setting [12]) and in assay [3] (setting [8]) was 0.98 in each case.

Take `CNCCOB(c1ccccc1)c1ccc(COc2ccc(B(OCCNC)c3ccccc3)cc2)cc1` [Example 427, (4-phenyl-N-methylaminoethoxyborylphenyl) (4′-phenyl-N-methylaminoethoxyborylbenzyl)ether]: the pIC50 in assay [1] (setting [4]) is 6.10. The “TGase activity remaining (% of DMSO control = 100)” value in the assay with transglutaminase (TGase) (setting [5]) and with transglutaminase (TGase) (setting [11]) was 20 in each case. Further, the x-Fold in assay [3] (setting [7]) is 1.02; in assay [3] (setting [12]) it was 0.73; in assay [3] (setting [8]), 0.73.

Consider `NCCCCC(N)C(=O)OB(c1ccccc1)c1ccc(COCc2ccc(B(OC(=O)C(N)CCCCN)c3ccccc3)cc2)cc1` (stereo not shown) [Example 409, bis(4,4′-(phenyl-lysineboryl)benzyl)ether], for which, in assay [1] (setting [4]), the negative logarithm of the IC50 (pIC50) is 5.82. The “TGase activity remaining (% of DMSO control = 100)” value in the assay on transglutaminase (TGase) (setting [5]) and in the assay with transglutaminase (TGase) (setting [11]) was 29 in each case. The x-Fold in assay [3] (setting [12]) and in assay [3] (setting [8]) was 0.86 throughout.

On to `CCC(N)COB(c1ccc(C)c(Cl)c1)c1ccc(C)c(Cl)c1` (stereo not shown) [Example 229, di(3-chloro-4-methylphenyl) 2-aminobutylborinate], for which the pIC50 in assay [1] (setting [10]) and in assay [1] (setting [9]) was 6.30 throughout. The “TGase activity remaining (% of DMSO control = 100)” value in the assay on transglutaminase (TGase) (setting [5]) and in the assay on transglutaminase (TGase) (setting [6]) was 40 in each case. Further, the x-Fold in assay [3] (setting [7]) and in assay [3] (setting [8]) was 1.09 in each case.

On to `COc1ccc(B(O)c2ccc(COCc3ccc(B(O)c4ccc(OC)cc4)cc3)cc2)cc1` [Example 410, bis(4,4′-(p-methoxy-phenyl-hydroxyboryl)benzyl)ether], for which, in assay [1] (setting [4]), the negative logarithm of the IC50 (pIC50) was 5.70. In the assay on transglutaminase (TGase) (setting [5]), the “TGase activity remaining (% of DMSO control = 100)” value was determined as 130. In addition, in assay [3] (setting [8]), the x-Fold came to 0.90.

As for `NCCC(N)C(=O)OB(c1ccccc1)c1ccccc1` (stereo not shown) [Example 263, diphenyl(2,4-diaminolactonate-O,N)borane], the negative logarithm of the IC50 (pIC50) in assay [1] (setting [10]) and in assay [1] (setting [9]) was 5.52 each time. Moreover, the “TGase activity remaining (% of DMSO control = 100)” value in the assay with transglutaminase (TGase) (setting [5]) came to 146; in the assay with transglutaminase (TGase) (TGase inhibitory activity value, Table 1, listed as 2045), 146. The x-Fold is listed as 0.89 in assay [3] (polyglutamine aggregation inhibitory activity, Table 1, listed as 2045) and 0.89 in assay [3] (setting [8]).

Consider `NC(=O)CC(N)C(=O)OB(c1ccc(COCc2ccc(B(OC(=O)C(N)CC(N)=O)c3ccc(C(F)(F)F)cc3)cc2)cc1)c1ccc(C(F)(F)F)cc1` (stereo not shown) [Example 425, bis(4,4′-(p-trifluoromethylphenyl-asparagineboryl)benzyl)ether], for which the negative logarithm of the IC50 (pIC50) in assay [1] (setting [4]) is 6.30. The “TGase activity remaining (% of DMSO control = 100)” value in the assay on transglutaminase (TGase) (setting [5]) is 130. For the same molecule, the x-Fold in assay [3] (setting [8]) was 0.9.

For `NCCOB(c1ccccc1)c1ccc(COCc2ccc(B(OCCN)c3ccccc3)cc2)cc1` [Example 131, bis((4,4′-phenylaminoethoxyboryl)benzyl)ether], the pIC50 was 6.52 in assay [1] (setting [10]), 6.52 in assay [1] (setting [9]) and 6.77 in assay [2]. In addition, the x-Fold in assay [3] (setting [7]) and in assay [3] (setting [8]) was 1.1 each time.

`c1ccc(B(OCc2ccccn2)c2ccc(COc3ccc(B(OCc4ccccn4)c4ccccc4)cc3)cc2)cc1` [Example 429, (4-phenyl-2-pyridylmethoxyborylphenyl)(4′-phenyl-2-pyridylmethoxyborylbenzyl)ether]: the pIC50 in assay [1] (setting [4]) is 6.15. The “TGase activity remaining (% of DMSO control = 100)” value in the assay on transglutaminase (TGase) (setting [5]) and in the assay on transglutaminase (TGase) (setting [11]) was 102 each time. For the same molecule, the x-Fold in assay [3] (setting [12]) and in assay [3] (setting [8]) was 0.81 each time.

With `CC(CN)OB(c1ccccc1)c1ccc(COCc2ccc(B(OC(C)CN)c3ccccc3)cc2)cc1` (stereo not shown) [Example 458, bis(4,4′-(phenyl-1-methyl-2-aminoethoxyboryl)benzyl)ether], the negative logarithm of the IC50 (pIC50) in assay [1] (setting [4]) was 6.30. Besides, the “TGase activity remaining (% of DMSO control = 100)” value with transglutaminase (TGase) (setting [5]) and with transglutaminase (TGase) (setting [11]) was 31 in each case. The x-Fold in assay [3] (setting [12]) and in assay [3] (setting [8]) was 1.10 each time.

For the origin of these results see patent publication US8853424B2 (Japan Science and Technology Agency, priority 2008, dated 2014).
